Columns and labels:
[1] = target: T1, eelAChE (acetylcholinesterase from the electric eel) (Electrophorus electricus, UniProt O42275); assay: biochemical; settings: for IC50: mean ± SD of three independent experiments; for inhibition at 50 µM: read-out: eelAChE: % inhibition
T1 construct: purchased Sigma Aldrich

[2] = DPPH antioxidant assay; settings: DPPH 110 µM, 30 min incubation, 517 nm; read-out: DPPH scavenging EC50
Text: The DPPH method presents several advantages, such as low cost, ease of performing experiments, high reproducibility, applicability at room temperature, and automation possibilities. In contrast to other traditional antioxidant assays that require additional treatments of sample and reagents, such as high temperatures and/or oxygen supply, the DPPH method requires mild experimental conditions[35],[36]. These features have established it as a convenient and effective option for researchers in the evaluation of antioxidant properties. In this study, the antioxidant activities of the synthesized compounds 6a-j were assessed using the DPPH assay, and the obtained results are represented as EC50 values in Table 2. In this assay, quercetin was used as positive control to compare the antioxidant capacity of the tested compounds.
The antioxidant activity of the synthesized compounds were determined based on the DPPH method. 2,2-Diphenyl-1-picrylhydrazyl (DPPH) and quercetin were obtained from Sigma Aldrich company. In this assay, quercetin was used as the control compound. Initially, stock solutions of the tested compounds with concentration of 40 mM were prepared in dimethyl sulfoxide (DMSO) solvent, and then the necessary dilutions were made in methanol to prepare the required concentrations ranging from 25 to 400 µM. This test was conducted in 96-well plates. Each well contained 180 μL of DPPH (110 μM) and 20 μL of different concentrations of the tested compounds, which were incubated for 30 min under dark condition. Then, the absorbance changes were measured at a wavelength of 517 nm using the Synergy HTX Multi-Mode Reader-BioTek. EC50 values for the compounds whose free radical trapping percentage was more than 50% at a concentration of 400 µM were obtained using CurveExpert software. Experiments were repeated three times for each concentration and the results were reported as the mean (m) ± standard deviation (SD).

[3] = target: eqBuChE (butyrylcholinesterase from equine serum) (Equus caballus, UniProt P81908); assay: biochemical; type: biochemical; settings: for IC50: mean ± SD of three independent experiments; for inhibition at 50 µM: read-out: eqBuChE: % inhibition; for Selectivity index to BuChE (SI): IC50 for AChE/ IC50 for BuChE
Chain of eqBuChE (butyrylcholinesterase from equine serum) (P81908 whole entry): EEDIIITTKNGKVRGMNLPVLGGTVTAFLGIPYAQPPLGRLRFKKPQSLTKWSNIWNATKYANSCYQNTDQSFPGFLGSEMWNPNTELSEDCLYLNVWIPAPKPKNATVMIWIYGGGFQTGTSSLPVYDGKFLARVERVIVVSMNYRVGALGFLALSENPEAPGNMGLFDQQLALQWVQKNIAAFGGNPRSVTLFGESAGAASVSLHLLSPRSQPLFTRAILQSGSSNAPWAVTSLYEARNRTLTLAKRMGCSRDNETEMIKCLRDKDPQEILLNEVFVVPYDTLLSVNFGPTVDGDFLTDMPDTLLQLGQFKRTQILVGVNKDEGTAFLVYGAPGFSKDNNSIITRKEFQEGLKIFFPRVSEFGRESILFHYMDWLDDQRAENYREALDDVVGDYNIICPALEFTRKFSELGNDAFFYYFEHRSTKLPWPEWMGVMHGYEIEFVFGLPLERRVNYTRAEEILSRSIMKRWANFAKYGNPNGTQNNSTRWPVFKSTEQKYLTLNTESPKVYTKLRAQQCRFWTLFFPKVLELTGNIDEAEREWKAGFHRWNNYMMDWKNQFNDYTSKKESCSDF

[4] = target: eqBuChE (Equus caballus, UniProt P81908); assay: Kinetic study of eqBuChE inhibition (Lineweaver-Burk plot); type: biochemical, equine; settings: inhibitor 0.5, 1, 5, 10, and 20 µM
Chain of eqBuChE (P81908 whole entry): as above
Method: (§1) Kinetic study was performed to investigate the inhibition mechanism of eelAChE and eqBuChE using graphical analysis of the reciprocal Lineweaver–Burk plot. […] The kinetic studies were performed in the absence (control) and presence of different concentrations of compound 6h (5, 10, 20, 40, and 80 μM) for eelAChE and different concentrations of compound 6f (0.5, 1, 5, 10, and 20 μM) for eqBuChE. The control wells contained no concentration of 6h and 6f as inhibitors.
(§2) The initial velocity (V) of the substrates hydrolysis was measured at different concentrations of acetylthiocholine iodide (ATCI) or butyrylthiocholine iodide (BTCI) (1.7–20 mM), in the absence (control) and presence of different concentrations of the compound 6h (5, 10, 20, 40, and 80 μM) for AChE and different concentrations of compound 6f (0.5, 1, 5, 10, and 20 μM) for BuChE. Then, the double reciprocal plot of 1/V versus 1/S was drawn to determine the inhibition type of AChE and BuChE. Data analysis was performed using Microsoft Office Excel 2016.

[5] = target: T2, eelAChE (Electrophorus electricus, UniProt O42275); assay: Kinetic study of eelAChE inhibition (Lineweaver-Burk plot); type: biochemical, electric eel; settings: inhibitor 5, 10, 20, 40, and 80 µM
T2 construct: purchased Sigma Aldrich
T2 sequence (O42275 24-633): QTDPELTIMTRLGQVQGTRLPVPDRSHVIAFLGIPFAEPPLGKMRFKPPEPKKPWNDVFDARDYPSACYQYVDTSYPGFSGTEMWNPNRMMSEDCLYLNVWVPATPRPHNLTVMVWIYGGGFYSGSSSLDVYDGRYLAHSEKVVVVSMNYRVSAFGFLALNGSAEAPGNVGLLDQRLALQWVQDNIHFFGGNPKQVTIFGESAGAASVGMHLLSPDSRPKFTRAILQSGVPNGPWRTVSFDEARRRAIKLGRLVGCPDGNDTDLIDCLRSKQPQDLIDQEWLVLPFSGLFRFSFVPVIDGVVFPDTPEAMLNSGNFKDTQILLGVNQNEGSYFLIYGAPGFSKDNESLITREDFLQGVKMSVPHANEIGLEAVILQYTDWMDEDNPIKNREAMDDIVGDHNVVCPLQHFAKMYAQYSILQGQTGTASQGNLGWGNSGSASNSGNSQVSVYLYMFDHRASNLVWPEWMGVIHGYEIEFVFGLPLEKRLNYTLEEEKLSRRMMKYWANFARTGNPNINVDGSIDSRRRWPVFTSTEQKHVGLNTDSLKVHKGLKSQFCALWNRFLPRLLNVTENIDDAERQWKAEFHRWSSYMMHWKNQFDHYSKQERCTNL
Method: as §1, §2

T1 sequence (O42275 24-633): as above

Compound | IC50 [1] [µM] | inhibition at 50 µM [1] [%] | EC50 [2] [µM] | IC50 [3] [µM] | inhibition at 50 µM [3] [%] | Inhibition type of eqBuChE [4] | eqBuChE inhibitory activity, times more active than donepezil [3] [times] | Selectivity index to BuChE (SI) [3] | Inhibition type of eelAChE [5]
Brc1ccccc1Nc1nc(Nc2ccccc2Br)c2ccccc2n1 [Compound 6a, N^2, N^4-bis(2-bromophenyl) quinazoline-2,4-diamine] | > 50 | 12.4 ± 2.74 | > 400 | > 50 | 30.6 ± 2.15 |  |  |  | 
Oc1ccccc1Nc1nc(Nc2ccccc2O)c2ccccc2n1 [Compound 6b, 2,2′-(quinazoline-2,4-diylbis(azanediyl))diphenol] | > 50 | 8.7 ± 1.15 | 26.1 | 37.2 | 52.3 ± 2.17 |  |  |  | 
Nc1ccccc1Nc1nc(Nc2ccccc2N)c2ccccc2n1 [Compound 6c, N^1, N^1′-(quinazoline-2,4-diyl)bis(benzene-1,2-diamine)] | > 50 | 6.15 ± 3.15 | 28.4 | 26.9 | 64.1 ± 2.32 |  |  |  | 
Brc1cccc(Nc2nc(Nc3cccc(Br)c3)c3ccccc3n2)c1 [Compound 6d, N^2,N^4-bis(3-bromophenyl)quinazoline-2,4-diamine] | > 50 | 23.5 ± 1.03 | > 400 | 41.7 | 56.1 ± 4.17 |  |  |  | 
FC(F)(F)c1cccc(Nc2nc(Nc3cccc(C(F)(F)F)c3)c3ccccc3n2)c1 [Compound 6e, N^2, N^4-bis(3-(trifluoromethyl)phenyl)quinazoline-2,4-diamine] | > 50 | 16.5 ± 3.05 | > 400 | 43.5 | 58.8 ± 1.37 |  |  |  | 
Cc1ccc(Nc2nc(Nc3ccc(C)cc3)c3ccccc3n2)cc1 [Compound 6f, N^2, N^4-di-p-tolylquinazoline-2,4-diamine] | > 50 | 40.3 ± 3.55 | > 400 | 0.52 | 96.7 ± 2.57 | mixed-type inhibition | 20 | > 96 | 
COc1ccc(Nc2nc(Nc3ccc(OC)cc3)c3ccccc3n2)cc1 [Compound 6g, N^2, N^4-bis(4-methoxyphenyl)quinazoline-2,4-diamine] | > 50 | 11 ± 4.64 | > 400 | 48.3 | 51.5 ± 3.25 |  |  |  | 
COc1ccc(Nc2nc(Nc3ccc(OC)cc3OC)c3ccccc3n2)c(OC)c1 [Compound 6h, N^2, N^4-bis(2,4-dimethoxyphenyl)quinazoline-2,4-diamine] | 47.6 | 52.4 ± 2.33 | > 400 | 6.74 | 87.5 ± 3.08 |  |  | 7.1 | mixed-type inhibition
COc1ccc(Cl)cc1Nc1nc(Nc2cc(Cl)ccc2OC)c2ccccc2n1 [Compound 6i, N^2, N^4-bis(5-chloro-2-methoxyphenyl)quinazoline-2,4-diamine] | > 50 | 13.7 ± 1.94 | > 400 | > 50 | 26.6 ± 3.19 |  |  |  | 
Cc1ccc(O)c(Nc2nc(Nc3cc(C)ccc3O)c3ccccc3n2)c1 [Compound 6j, 2'-(quinazoline-2,4-diylbis(azanediyl))bis(4-methylphenol)] | > 50 | 45.2 ± 2.91 | 23.2 | 3.65 | 91.6 ± 3.26 |  |  | > 13.6 | 
O=c1c(O)c(-c2ccc(O)c(O)c2)oc2cc(O)cc(O)c12 [Quercetin, quercetin, reference compound] |  |  | 8.9 |  |  |  |  |  | 

Source: PMC11227574, “Synthesis, biological evaluation, molecular docking, and MD simulation of novel 2,4-disubstituted quinazoline derivatives as selective butyrylcholinesterase inhibitors and antioxidant agents” (Scientific Reports, 2024)
